{"source": "patent US8846645B2", "about": "“Cyclohexane compounds and their use as antibiotics” (Rheinische Friedrich-Wilhelms Universität Bonn, priority 2010, dated 2014)", "key": {"[1]": {"system": "glmS riboswitch of Staphylococcus aureus MU50", "assay": "metabolite-induced self-cleavage assay of the glmS riboswitch", "assay_type": "biochemical", "procedure": "The determination was performed using an in vitro preparation of the glmS riboswitch of Staphylococcus aureus MU50.\nThe glmS riboswitch DNA was amplified from genomic DNA of the S. aureus Mu50 strain (RKI Berlin) by standard Pfu polymerase chain reaction (PCR) using a 5′ primer containing the T7 promoter (GATAATACGACTCACTATAGGGCAGTTAAAGCGCCTGTGCAAATA, SEQ ID NO: 1) and a 3′ primer (ATCTTATTAACTTTGTCCATTAAGTCACCC, SEQ ID NO: 2) (20 cycles, annealing temperature of 60° C., homemade Pfu enzyme). The resultant of a 100 μl PCR reaction was phenol/chloroform extracted and precipitated using 3M NaOAc pH 5.4 and ethanol Pellets were resuspended in 10 μl diethylpyrocarbonate treated water (DEPC H2O) and used as template for T7 RNA polymerase-based transcription. […]\nFor this assay the following components were mixed to yield the stated final concentrations: cleavage buffer (50 mM Hepes pH 7.5, 200 mM KCl), MgCl2 (10 mM), glucosamine-6-phosphate (200 μM), glucosamine (GlcN) (200 μM), the compound according to formula (I) (200 μM) or the compound according to formula (3) (200 μM and 20 mM), radioactively labelled RNA (20 cps) and DEPC H2O ad 10 μl. […] The screens were read using a FujiFilm PhosphorImager FLA 3000 and evaluated using AIDA software."}, "[2]": {"system": "Staphylococcus aureus SG511", "assay": "determination of the minimal inhibitory concentration in Staphylococcus aureus SG511", "assay_type": "cell-based", "settings": "0.5× Mueller-Hinton media, 18-24 h, OD 600 nm; FIG. 3", "procedure": "The determination of the minimal inhibitory concentration (MIC) of the compounds according to formula (I) (carba-GlcN6P) and formula (3) (carba-GlcN) was performed in clear, round bottom 96-well plates. For this 100 μl of 0.5× Mueller-Hinton media (Oxoid, 300 gm/litre dehydrated infusion from beef, 17.5 gm/litre casein hydrolysate, 1.5 gm/litre starch, pH 7.3) were put into the 12 wells. To the first well 100 μl of 320 mM solution of carba-GlcN were added, mixed by pipetting and 100 μl of this mixture were transferred into the next well etc., generating a sequence final dilutions from 160 mM to 0.08 mM. Finally, SG511 cells that had been grown to an optical density (OD600) of 1 were diluted in 0.5× Mueller-Hinton media 1:10 000. From this dilution 100 μl were added to the already prepared plate leading to a final compound concentration of 80 mM-0.04 mM. After incubation for 10 min at RT and vivid shaking, the 96-well plate was transferred to a 37° C. incubator. After 18-24 h of incubation the plate was read at 600 nm using a standard plate reader."}, "[3]": {"system": "Staphylococcus aureus Mu50 cells", "assay": "growth inhibition in vancomycin intermediate resistant Staphylococcus aureus Mu50 in sugar free medium", "assay_type": "cell-based", "procedure": "For the preparation of 2× chemically defined medium (2×CDM), a minimal medium for Staphylococcus aureus without glucose, for the preparation of 500 ml the following components were mixed in individual groups before being combined:\nAfter preparation of the individual groups, the groups I-IV were added to group V. The volume was adjusted to 480 ml with ddH2O. The pH was adjusted to 7 using HCl followed by adjusting the volume to the final 500 ml. Before storage at 4° C. the medium was sterile filtered.\nThe determination of the decrease in bacterial growth of Staphylococcus aureus Mu50 cells (RKI Berlin) depending on the concentration of the compound according to formula (3) (C GlcN) was performed in clear, sterile, round bottom 96-well plates with lid. Before treatment, the cells were grown in 2×CDM medium without glucose at 37° C. for 24 h under vigorous shaking.\nFor the determination of the growth inhibition 100 μl of 2×CDM were put into each of 12 wells. […] The 96 well plate was incubated at 37° C. in a Tecan Sunrise plate reader, which tracks the optical density (OD600) in 10 minute intervals and automatically shakes the plate for one minute every two minutes. Minimal inhibitory concentration was read after 18 h to 24 h of incubation. […]"}, "[4]": {"system": "Staphylococcus aureus Mu50 cells", "assay": "synergistic effects with vancomycin treatment of S. aureus Mu50", "assay_type": "cell-based", "settings": "0.0025 mM alone", "method": "Before treatment, Staphylococcus aureus Mu50 cells (RKI Berlin) were grown in sterile, 15 ml flasks containing 5 ml of 2×CDM without glucose at 37° C. for 24 h under vigorous shaking.\nFor the determination of the growth inhibition 100 μl of 2×CDM containing 10 μM vancomycin were put into each of 12 wells. […] Finally, Mu50 cells that had been grown to an optical density (OD600) of 0.8 to 1 were diluted in 2×CDM to an optical density (OD600) of 0.2. From this dilution 100 μl were added to the already prepared plate leading to a final compound concentration of 80 mM, 40 mM, 20 mM, 10 mM, 5 mM, and 2.5 mM, a final concentration of 2.5 μM vancomycin and a final OD600 of 0.1 per well at the beginning of the measurement. The 96 well plate was incubated at 37° C. in a Tecan Sunrise plate reader, which tracks the optical density (OD600) in 10 minute intervals and automatically shakes the plate for one minute every two minutes. Minimal inhibitory concentration was read after 18 h to 24 h of incubation. Control cells were treated without compounds or with 2.5 μM vancomycin."}}}
{"smiles": "N[C@H]1C(O)O[C@H](COP(=O)(O)O)[C@@H](O)[C@@H]1O", "note": "(stereo partly shown) [GlcN6P, glucosamine-6-phosphate, reference compound]", "values": [{"measurement": "EC50", "setting": "[1]; concentration dependent analysis, 37° C., 30 min", "result": "3.61 ± 0.39", "unit": "µM"}]}
{"smiles": "N[C@@H]1[C@@H](O)[C@H](O)[C@@H](COP(=O)(O)O)C[C@@H]1O", "note": "[formula (1), (1S,2S,3R,4R,5R)-2-amino-5-((phosphonooxy)methyl)-cyclohexane-1,3,4-triol]", "values": [{"measurement": "activation of the glmS-riboswitch compared with the native metabolite", "setting": "[1]; versus GlcN6P", "result": "almost the same potency"}, {"measurement": "bacterial growth of Staphylococcus aureus", "setting": "[2]", "result": "effectively inhibit the growth"}]}
{"smiles": "NC1C(O)CC(CO)C(O)C1O", "note": "(stereo not shown) [formula (3), Carba-glucosamine]", "values": [{"measurement": "MIC", "setting": "[3]; Staphylococcus aureus, MU50CELLS, 2×CDM without glucose, read after 18 h to 24 h, n=3, read-out: minimal inhibitory concentration (MIC)", "result": 625, "unit": "µM"}, {"measurement": "concentration at which measureable growth inhibition started", "setting": "[3]; sugar free medium, referring to control cells grown without compounds, FIG. 4", "result": 0.156, "unit": "mM"}]}
{"smiles": "CN[C@H](CC(C)C)C(=O)N[C@H]1C(=O)N[C@@H](CC(N)=O)C(=O)N[C@H]2C(=O)N[C@H]3C(=O)N[C@H](C(=O)N[C@H](C(=O)O)c4cc(O)cc(O)c4-c4cc3ccc4O)[C@H](O)c3ccc(c(Cl)c3)Oc3cc2cc(c3O[C@@H]2O[C@H](CO)[C@@H](O)[C@H](O)[C@H]2O[C@H]2C[C@](C)(N)[C@H](O)[C@H](C)O2)Oc2ccc(cc2Cl)[C@H]1O", "note": "[vancomycin]", "values": [{"measurement": "bacterial growth (OD600) compared to untreated cells", "setting": "[4]; after 10 h, FIG. 5", "result": "no change in the bacterial growth"}, {"measurement": "bacterial growth (OD600) compared to untreated cells", "setting": "[4]; over 18 h of incubation, FIG. 6", "result": "no change in the bacterial growth"}]}
